Measurements from PubChem BioAssay AID179 (DTP/NCI, 2004).
Calls of active or inactive are those of the source.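 Rule for the calls: active = compounds giving half or more protection of infected cells from virus-caused growth loss, again on retest; inactive = the rest.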 *1 amine or outer side, *2 acyl side, *3 side chain or, on linkers, in order; H or OH if unused. Where a SMILES comes first, the peptide text is derived from it. [ ]: non-standard residue; d: D form. The star is where a group is joined. ξ: configuration not given here. X15 = O=C([C@H]1CCC[C@H]1N[*:1])[*:2]; ξW = NC(Cc1c[nH]c2ccccc12)C(=O)O; ξF = NC(Cc1ccccc1)C(=O)O; Boc = CC(C)(C)OC(=O)*; ξK = NCCCCC(N)C(=O)O; ξT = CC(O)C(N)C(=O)O; tBu = CC(C)(C)*

Test system: CEM cells HIV-1 protection, formazan growth assay
Test: NCI AIDS Antiviral Assay
Conditions: for IC50: measured here: growth of uninfected CEM cells
Procedure, shortened: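 Human CEM cells, uninfected and HIV-1-infected, exposed to five drug concentrations; growth measured by soluble formazan assay and scored as percent protection from infection, with protecting compounds retested.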

CCCCOC(=Nc1ccccc1)N(c1ccccc1)c1ccccc1
EC50: > 200 µM | IC50: 36.3 µM

O=C1OCCN1N1CCOC1=O
EC50: > 200 µM | IC50: > 200 µM

CC(C)N1CC(=O)N2CSCC2C1=O (centres undefined)
EC50: > 200 µM | IC50: > 200 µM

COC(=O)C(/C(=N\O)C(=O)Nc1cccc(Cl)c1C)c1cnc2ccccc2n1 (centres undefined)
EC50: > 17.4 µM | IC50: > 17.4 µM

O=c1[nH]c2nn(-c3ccccc3)cc2c(=O)n1OS(=O)(=O)c1ccccc1
EC50: > 200 µM | IC50: > 200 µM

C=Cc1c(-c2ccccc2)cnc2[nH]c3ccccc3c12
EC50: > 13.8 µM | IC50: > 13.8 µM

CN1NC2(CCCCC2)ON=C1c1ccccc1
outcome: inactive

CC1(C)OC(=O)C(=Cc2ccccc2F)C(=O)O1
EC50: > 380 µM | IC50: 70.8 µM

CS(=O)(=O)N(CCC#N)c1ccc(/C=C2\N=C(c3ccccc3Cl)OC2=O)cc1
EC50: > 219 µM | IC50: > 219 µM

Nc1nccc(CC(O)(c2ccccc2)c2ccccc2)n1
EC50: > 64.6 µM | IC50: > 64.6 µM

Nc1c(O)c(S(=O)(=O)O)c(O)c2c1C(=O)c1ccccc1C2=O
EC50: 200 µM | IC50: 234 µM

Nc1c(S(=O)(=O)c2ccc(Cl)cc2)c2nc3ccccc3nc2n2ccnc12
EC50: 151 µM | IC50: > 200 µM

COc1cccc(N2C(=O)/C(=C/c3ccc(N(CCC#N)CCC#N)cc3)N=C2c2cc([N+](=O)[O-])ccc2Cl)c1
EC50: > 9.33 µM | IC50: > 9.33 µM

C/C(=N\NC(N)=S)c1ccc(Oc2ccccc2)cc1
outcome: inactive

COC(=O)C1Cc2c(OC)ccc(OC)c2CC(C(=O)OC)C1=O (centres undefined)
EC50: > 200 µM | IC50: 182 µM

NC(=O)N/N=C1\CC2C3CC4C2C4C13 (centres undefined)
EC50: > 200 µM | IC50: > 200 µM

CCCCCCCCCCC(c1cc(Cl)c(O)c(C(=O)O)c1)c1cc(Cl)c(O)c(C(=O)O)c1
EC50: > 1480 µM | IC50: 79.4 µM

CCOC(=O)CO/N=C\C1=CC(=O)C2CC1C2(C)C (centres undefined)
EC50: > 200 µM | IC50: > 200 µM

N#Cc1ccc(NC(=O)C(CC(=O)OCc2ccccc2)NC(=O)OCc2ccccc2)cc1 (centres undefined)
EC50: > 200 µM | IC50: > 200 µM

Cc1ccc(Nc2nc(C)c(C(=O)C/C(=N\NC(N)=S)C(=O)Nc3ccc(Cl)cc3C)s2)cc1
EC50: > 200 µM | IC50: > 200 µM

CCCCCC[N+]1(C)CC2C3C=CC(C3)C2C1 (centres undefined)
EC50: > 245 µM | IC50: > 100 µM

CC1(C)CC2(C)ON=C(c3ccccc3)N2c2ccccc2N1 (centres undefined)
EC50: 57.5 µM | IC50: 105 µM

CC(C)=CCc1c(O)c(CC2=C(O)C(C)=C(O)C(CC=C(C)C)(C(=O)C(C)C)C2=O)c(O)c(C(=O)C(C)C)c1O (centres undefined)
EC50: > 100 µM | IC50: 4.57 µM

Cc1ccc(C(=O)CC(O)(C(F)(F)F)C(F)(F)F)cc1[N+](=O)[O-]
EC50: > 200 µM | IC50: 6.61 µM

CCCCOC(=O)OC1CCC2(C)CC3CCC2(OO3)C1(C)C (centres undefined)
EC50: > 200 µM | IC50: 0.977 µM

O=Nc1ccc2ccccc2c1O
EC50: > 200 µM | IC50: 4.27 µM

CC(C)c1nsc2c1C(=O)NC(C(C)(C)C)N2 (centres undefined)
EC50: > 269 µM | IC50: 209 µM

Cc1ccc2[nH]c3c(c(=O)n(C)c(=O)n3C)c2c1
EC50: > 200 µM | IC50: > 200 µM

Cc1ccc2cccc3c2c1CC1(C3=O)S(=O)(=O)OCCOS1(=O)=O
EC50: > 200 µM | IC50: > 200 µM

CCOC(=O)CC1(C)c2nc(NC(C)=O)sc2Cc2sc(NC(C)=O)nc21
EC50: > 200 µM | IC50: 186 µM

CCOP(=O)(OCC)C(F)(F)CC1CCCCC1
EC50: > 200 µM | IC50: 170 µM

CCCCn1c2ccccc2c2ccc3c(c21)C(=O)C=CC3=O
EC50: > 17.4 µM | IC50: > 17.4 µM

Nc1nc(=O)n(C2CCC(CO)O2)cc1F (centres undefined)
EC50: 0.151 µM | IC50: 32.4 µM

CC(=O)N(/N=C\c1ccc([N+](=O)[O-])cc1)c1ccccc1
EC50: > 126 µM | IC50: > 126 µM

OCC1CC2CC1C1(C2)OCCO1 (centres undefined)
outcome: inactive

O=C1/C(=C/c2ccccc2Cl)Cc2ccccc21
EC50: > 5.37 µM | IC50: > 5.37 µM

CCCCCCCCCCC/C=C(/C(=O)CCCO[Si](C)(C)C(C)(C)C)C(=O)OC
EC50: > 200 µM | IC50: > 200 µM

C=C1CC(c2ccc(O)c(OC)c2)Oc2c(OC)cccc21 (centres undefined)
EC50: > 316 µM | IC50: 32.4 µM

CN1CCC(O)(C(C)(C)C)CC1
EC50: > 200 µM | IC50: > 200 µM

CC1CNC(=S)SSC(=S)N1 (centres undefined)
EC50: > 200 µM | IC50: 25.1 µM

Nc1ccc(C(=O)NN2C(=O)C(Cl)C2c2cc(Br)ccc2O)cc1 (centres undefined)
EC50: > 200 µM | IC50: 30.9 µM

CCCCNC(=O)NNC(=O)c1cc(/C=C/c2cccc([N+](=O)[O-])c2)ncn1
EC50: > 178 µM | IC50: > 178 µM

O=C(Nc1ccccc1)C(c1ccccc1)N(Nc1ccccc1Cl)c1ccccc1Cl (centres undefined)
EC50: > 200 µM | IC50: 33.9 µM

O=C(COc1ccc(Cl)cc1)N1N=C(c2ccc([N+](=O)[O-])o2)CC1(O)c1ccccc1 (centres undefined)
EC50: > 16.2 µM | IC50: 2.88 µM

CC(=O)Nc1ccc(-c2nnc(SCC(=O)Nc3ccc(C)cc3)o2)cc1
EC50: > 67.6 µM | IC50: 11.7 µM

CCCCCC[C@@H]1CCC2C(CO)[C@@H](O)CC[C@@H]2C1 (some centres undefined)
EC50: > 37.2 µM | IC50: 28.2 µM

OC(CC(CC(O)(C(F)(F)Cl)C(F)(F)Cl)=NNc1ccccc1)(C(F)(F)Cl)C(F)(F)Cl
EC50: > 200 µM | IC50: 2.14 µM

Oc1ccc([C@H]2c3c(O)cc(O)cc3C3c4c(cc(O)cc4[C@@H]2[C@H]2c4cc(O)cc5c4C(c4cc(O)cc(O)c4[C@@H]2c2ccc(O)cc2)[C@@H](c2ccc(O)cc2)O5)O[C@@H]3c2ccc(O)cc2)cc1 (some centres undefined)
EC50: > 100 µM | IC50: 13.8 µM

Brc1nc2c3ccccc3ncn2c1Br
EC50: > 30.2 µM | IC50: 14.8 µM

CC(=O)NC(C(=O)O)(C(=O)O)C(C)CC(=O)O (centres undefined)
EC50: > 200 µM | IC50: > 200 µM

O=C1CCCC[C@H]1C(O)CC1CC(=O)N(c2ccccc2)C(=O)C1 (some centres undefined)
EC50: > 200 µM | IC50: > 200 µM

N=C(N)c1ccc(/C=C/c2ccc(C(=N)N)cc2O)cc1
EC50: > 1450 µM | IC50: 55 µM

Nc1nc(Cl)cc(NCCC2(CO)CCC2)n1
EC50: > 200 µM | IC50: > 200 µM

CNc1nc(SC)nc2c1c(N)nn2C
EC50: > 200 µM | IC50: > 200 µM

C[n+]1c2ccccc2c(NC(CCC(N)=O)C(=O)O)c2ccccc21 (centres undefined)
outcome: inactive

Cc1ccnc2nc3[nH]c4ccccc4c3cc12
EC50: > 126 µM | IC50: > 126 µM

CCNC(=S)N/N=C(\C)c1cccc(C)n1
EC50: > 2 µM | IC50: 1.1 µM

CCOC(=O)C(=O)C1C(=O)Nc2ccccc21 (centres undefined)
EC50: > 398 µM | IC50: 204 µM

CC1(C)CC(=O)C(/C=N/c2nc(-c3ccccc3)cs2)=C(O)C1
EC50: > 200 µM | IC50: > 200 µM

CCC1C(C)C=CN1c1nc(N)nc(NS(=O)(=O)c2cc(C)c(Cl)cc2S)n1 (centres undefined)
EC50: 129 µM | IC50: > 200 µM

Cc1cc(C)nc(NS(=O)(=O)c2ccc(Nc3c4ccccc4nc4c(C(=O)Nc5ccc(S(=O)(=O)N=C(N)N)cc5)ccc(Cl)c34)cc2)n1
EC50: > 93.3 µM | IC50: 69.2 µM

O=C1c2ccccc2C(=O)N1CCN(CCN1C(=O)c2ccccc2C1=O)Cc1ccccc1
outcome: inactive

CCN(C(=O)N[C@@H](CC(C)C)C(=O)NCC(=O)OC)c1ccccc1
EC50: > 200 µM | IC50: 110 µM

CC(C)=CCC[C@@H](C)C1=C(O)C(c2c(I)c(=O)n(C)c(=O)n2C)=C(C)C(=O)C1=O
EC50: > 200 µM | IC50: 112 µM

O=c1/c(=C/c2c(O)ccc3ccccc23)sc2nc3ccccc3n12
outcome: inactive

O=c1[nH]nc(NNc2ccccc2)c2nnn(C3CCCCC3)c12
EC50: > 200 µM | IC50: 12.6 µM

COc1c(OC(C)C)c(OC(C)C)c2oc(=O)n3c2c1C(c1ccccc1-n1c(C)ccc1C)C=C3 (centres undefined)
EC50: > 200 µM | IC50: > 200 µM

CNc1cc(Cl)ccc1S(=O)(=O)c1ccccc1[N+](=O)[O-]
EC50: 5.37 µM | IC50: > 200 µM

O=C1NC(CO)(CO)CO1
EC50: > 200 µM | IC50: > 200 µM

O=C1c2ccoc2C(=O)c2oc(=O)ccc21
EC50: > 102 µM | IC50: 5.75 µM

CC(OC(C)(C)C)C1NC(=O)C(CCCCNC(=O)OC(C)(C)C)NC(=O)C(Cc2c[nH]c3ccccc23)NC(=O)C(Cc2ccccc2)NC(=O)[C@H]2CCC[C@H]2NC(=O)C(Cc2ccccc2)NC1=O (some centres undefined) (cyclo([X15][ξF][ξW][ξK](Boc)[ξT](tBu)[ξF]))
outcome: inactive

O=C1C=Cc2c(-c3ccccc3)oc3cccc1c23
outcome: inactive

COc1ccc(/C=C/c2ccc3ccccc3n2)c(OC)c1
EC50: > 200 µM | IC50: 12.3 µM

CC1CN=C(N(C(=O)Nc2ccccc2)c2ccc(Cl)c(Cl)c2)S1 (centres undefined)
EC50: > 200 µM | IC50: 138 µM

Nn1c(C23CC4CC(CC(C4)C2)C3)n[nH]c1=S
EC50: 182 µM | IC50: > 200 µM

CCN1C(=O)CCCCC(=O)Nc2ccccc2-c2ccccc21
outcome: inactive

O=C(NN(C(=O)c1ccc([N+](=O)[O-])cc1)c1ccccc1)c1ccc([N+](=O)[O-])cc1
EC50: > 200 µM | IC50: 36.3 µM

Cc1c(C)c2c(c(N)c1C#N)C(=O)N(NC(=S)Nc1ccccc1)C2=O
EC50: > 200 µM | IC50: 158 µM

COc1ccc(C2C3=C(COC3=O)Oc3cc4c(cc32)OCO4)c(OC)c1 (centres undefined)
EC50: > 200 µM | IC50: 12.3 µM

O=c1c2ccccc2c(=O)c2c1c1c(=O)c3ccccc3c(=O)c1c1c(=O)c3ccccc3c(=O)c21
EC50: > 200 µM | IC50: > 200 µM

N#Cc1cccc(-n2[nH]c(=O)ccc2=O)c1
EC50: > 200 µM | IC50: > 200 µM

CN(C)CCCC12OC(c3ccccc31)C(O)c1ccccc12 (centres undefined)
EC50: > 200 µM | IC50: > 200 µM

Nc1nnnc2nc[nH]c12
EC50: > 20 µM | IC50: 0.537 µM

Clc1cc(Cl)c2c(c1)[nH]c1nc3ccccc3nc12
EC50: > 18.2 µM | IC50: > 18.2 µM

O=C1NC(Cc2ccc([N+](=O)[O-])cc2)C(=O)N2CCCC12 (centres undefined)
EC50: > 200 µM | IC50: > 200 µM

C=C(C)COC(=O)COCC(=O)OCC(=C)C
EC50: > 200 µM | IC50: > 200 µM

CCOC(=O)c1cc(-c2ccc3ccccc3n2)c(O)c2cc3ccccc3nc12
EC50: > 200 µM | IC50: > 200 µM

CCCCCCCCCCCCCCCCCCSCC12c3ccccc3C(c3ccccc31)C(COS(=O)(=O)O)C2COS(=O)(=O)O (centres undefined)
EC50: > 100 µM | IC50: 64.6 µM

O=C1NS(=O)(=O)C2C(Cl)=C(Cl)C3(Cl)C2C13Cl (centres undefined)
EC50: > 776 µM | IC50: > 776 µM
